Columns and labels:
[1] = target: α1β3γ2S GABAA receptors (Rattus norvegicus, UniProt P18508+P62813); settings: read-out: Ki at α1β3γ2 GABAA receptors; ref Savić et al., 2010; cited from earlier work
[2] = In vitro hydrolytic stability study in rat plasma; format: in vitro ADME; settings: for % remaining in plasma (in vitro metabolic stability) / Total plasma concentration (in vitro metabolic stability): rat plasma 37 °C
[3] = target: κ opioid receptor (KOR) (Homo sapiens, UniProt P41145); settings: read-out: Affinity at KOR; ref B. Roth et al., NIMH Psychoactive Drug Screening Program; cited from earlier work
[4] = target: T1, α3β3γ2 GABAA receptors (Rattus norvegicus, UniProt P18508+P20236); settings: 100 nM; ref Savić et al., 2010; cited from earlier work
[5] = target: T2, α2β3γ2 GABAA receptors (Rattus norvegicus, UniProt P18508+P23576); settings: 100 nM; ref Savić et al., 2010; cited from earlier work
[6] = target: α3β3γ2S GABAA receptors (Rattus norvegicus, UniProt P18508+P20236); settings: read-out: Ki at α3β3γ2 GABAA receptors; ref Savić et al., 2010; cited from earlier work
[7] = target: T3, α5β3γ2S GABAA receptors (Rattus norvegicus, UniProt P18508+P19969); settings: read-out: Ki at α5β3γ2 GABAA receptors; ref Savić et al., 2010; cited from earlier work
[8] = target: T4, α5β3γ2 GABAA receptors (Rattus norvegicus, UniProt P18508+P19969); settings: 100 nM; ref Savić et al., 2010; cited from earlier work
[9] = target: T4, α5β3γ2 GABAA receptors; test: Two-electrode voltage clamp in Xenopus oocytes, α5β3γ2; format: cell-based
[10] = target: T3, α5β3γ2S GABAA receptors; test: 3H-flunitrazepam competition binding, α5β3γ2S; settings: ratio of Ki values
[11] = Plasma protein and brain tissue binding; format: in vitro ADME, rat; settings: rapid equilibrium dialysis
[12] = target: α2β3γ2S GABAA receptors (Rattus norvegicus, UniProt P18508+P23576); settings: read-out: Ki at α2β3γ2 GABAA receptors; ref Savić et al., 2010; cited from earlier work
[13] = target: T2, α2β3γ2 GABAA receptors; test: Two-electrode voltage clamp in Xenopus oocytes, α2β3γ2; format: cell-based; settings: 200 mg/kg dose
[14] = target: T1, α3β3γ2 GABAA receptors; test: Two-electrode voltage clamp in Xenopus oocytes, α3β3γ2; format: cell-based; settings: 200 mg/kg dose
[15] = Pharmacokinetic study, plasma and brain concentrations after i.p. injection; settings: rat, 20 min
[16] = system: Wistar rats; test: Rotarod test; format: in vivo, rat; settings: 200 mg/kg i.p.; vs. 180 s with control animals; n = 4
[17] = target: α1β3γ2 GABAA receptors (Rattus norvegicus, UniProt P18508+P62813); settings: 100 nM; ref Savić et al., 2010; cited from earlier work
[18] = system: Wistar rats; settings: ref Savić et al., 2008; cited from earlier work

## C#Cc1ccc2c(c1)C(c1ccccc1F)=N[C@H](C)c1c(C(=O)OCC)ncn1-2 [SH-053-2′F-R-CH3]
[1]
  Ki: 759 nM
[2]; 0 min
  % remaining in plasma (in vitro metabolic stability): 100%
  Total plasma concentration (in vitro metabolic stability): 0.5556 µM
[2]; 30 min
  % remaining in plasma (in vitro metabolic stability): 76.64%
  Total plasma concentration (in vitro metabolic stability): 0.4258 ± 0.0042 µM
[2]; 60 min
  % remaining in plasma (in vitro metabolic stability): 62.77%
  Total plasma concentration (in vitro metabolic stability): 0.3487 ± 0.0040 µM
[2]; 120 min
  % remaining in plasma (in vitro metabolic stability): 38.27%
  Total plasma concentration (in vitro metabolic stability): 0.2126 ± 0.0036 µM
[2]; 240 min
  % remaining in plasma (in vitro metabolic stability): 5.24%
  Total plasma concentration (in vitro metabolic stability): 0.0291 ± 0.0023 µM
[2]; rat, plasma
  In vitro metabolic stability during incubation in rat plasma: less stable
[3]
  Ki: 240 nM
[4]
  % of control current, α3β3γ2: 125 ± 8%
[5]
  % of control current, α2β3γ2: 124 ± 9%
[6]
  Ki: 769 nM
[7]
  Ki: 95.2 nM
[8]
  % of control current, α5β3γ2: 183 ± 7%
[9]; approximated from estimated free rat brain concentration, 200 mg/kg i.p.
  Estimated potentiation of GABA-mediated currents at α5GABAARs: 280%
[9]; read from concentration-response curves of Savić et al., 2010
  Concentration needed to elicit 300% potentiation at α5GABAARs: above 300 nM
[10]
  Selectivity in binding to α5GABAARs compared to α1-containing GABAA receptors: 8 fold
  Selectivity in binding to α5GABAARs compared to α2-containing GABAA receptors: 10 fold
[11]; rat brain tissue
  Free fraction in brain tissue: 3.87%
[11]; rat plasma
  Free fraction in plasma: 68.55%
[12]
  Ki: 948 nM
[13]
  Estimated potentiation at α2GABAARs: 171%
[14]
  Estimated potentiation at α3GABAARs: 155%
[15]; 10 mg/kg i.p.
  Brain free (estimated) concentration: 29.10 ± 5.14 nmol/kg
  Brain total concentration: 752.00 ± 132.84 nmol/kg
  Plasma free (estimated) concentration: 278.60 ± 52.39 nmol/L
  Plasma total concentration: 406.43 ± 76.45 nmol/L
[15]; 20 mg/kg i.p.
  Brain free (estimated) concentration: 38.85 ± 3.39 nmol/kg
  Brain total concentration: 1003.57 ± 87.55 nmol/kg
  Plasma free (estimated) concentration: 288.32 ± 47.99 nmol/L
  Plasma total concentration: 420.63 ± 70.01 nmol/L
[15]; 30 mg/kg i.p.
  Brain free (estimated) concentration: 64.40 ± 14.64 nmol/kg
  Brain total concentration: 1663.84 ± 378.29 nmol/kg
  Plasma free (estimated) concentration: 380.78 ± 46.73 nmol/L
  Plasma total concentration: 555.51 ± 68.18 nmol/L
[15]; 150 mg/kg i.p.
  Brain free (estimated) concentration: 147.74 ± 37.36 nmol/kg
  Brain total concentration: 3816.79 ± 965.21 nmol/kg
  Plasma free (estimated) concentration: 1100.14 ± 186.36 nmol/L
  Plasma total concentration: 1604.96 ± 271.88 nmol/L
[15]; 200 mg/kg i.p.
  Brain free (estimated) concentration: 324.16 ± 89.88 nmol/kg
  Brain total concentration: 8374.25 ± 2322.03 nmol/kg
  Plasma free (estimated) concentration: 1876.71 ± 196.63 nmol/L
  Plasma total concentration: 2737.87 ± 286.86 nmol/L
[16]
  Rotarod, time remaining on the rod: 154 ± 26 s
[17]
  % of control current, α1β3γ2: 111 ± 2%

## C#Cc1ccc2c(c1)C(c1ccccc1F)=N[C@@H](C)c1c(C(=O)OCC)ncn1-2 [SH-053-2′F-S-CH3]
[18]
  Median incapacitating dose (rotarod): 219 mg/kg
